Experimental data reported in the NIST ThermoML archive (doi:10.1021/je050544m).
± gives the expanded uncertainty stated by the source.

Experiment: activity coefficient (dimensionless); of the first substance listed, at infinite dilution; xn = mol fraction of the nth substance listed
Conditions: 101 kPa, Liquid, Chromatography, x1 = 0

SMILES | activity coefficient (303 K) | activity coefficient (323 K) | activity coefficient (343 K)
C1CCCCC1 [cyclohexane] + CCn1cc[n+](C)c1.F[B-](F)(F)F | 53.7 ± 5.7 | 46.2 ± 4.9 | 38.9 ± 4.1
CO [methanol] + CCCCn1cc[n+](C)c1.F[B-](F)(F)F | 1.32 ± 0.14 | 1.21 ± 0.12 | 1.07 ± 0.11
C=CCCCC [hex-1-ene] + CCCCn1cc[n+](C)c1.F[B-](F)(F)F | 35.4 ± 3.7 | 32.2 ± 3.4 | 30.5 ± 3.2
ClC=C(Cl)Cl [trichloroethene] + CCCCCCn1cc[n+](C)c1.F[B-](F)(F)F | – | – | 2.53 ± 0.27
CC(C)=O [acetone] + CCCCn1cc[n+](C)c1.F[B-](F)(F)F | – | 1.05 ± 0.11 | 1.11 ± 0.11
c1ccccc1 [benzene] + CCCCCCn1cc[n+](C)c1.F[B-](F)(F)F | 1.63 ± 0.17 | 1.65 ± 0.17 | 1.68 ± 0.18
Cc1ccccc1 [toluene] + CCn1cc[n+](C)c1.F[B-](F)(F)F | – | – | 4.03 ± 0.42
ClC(Cl)(Cl)Cl [tetrachloromethane] + CCCCCCCC[n+]1ccn(C)c1.F[B-](F)(F)F | – | 2.39 ± 0.25 | 2.62 ± 0.28
Cc1ccccc1 [toluene] + CCCCCCn1cc[n+](C)c1.F[B-](F)(F)F | – | – | 2.61 ± 0.27
CCCO [propan-1-ol] + CCCCCCn1cc[n+](C)c1.F[B-](F)(F)F | – | 1.86 ± 0.19 | 1.63 ± 0.17
CC(C)CC(C)(C)C [2,2,4-trimethylpentane] + CCCCCCn1cc[n+](C)c1.F[B-](F)(F)F | 54.1 ± 5.7 | – | 44.5 ± 4.7
CC(C)CC(C)(C)C [2,2,4-trimethylpentane] + CCCCCCCC[n+]1ccn(C)c1.F[B-](F)(F)F | – | 17.7 ± 1.9 | 17 ± 1.8
ClC(Cl)(Cl)Cl [tetrachloromethane] + CCCCCCn1cc[n+](C)c1.F[B-](F)(F)F | – | 3.3 ± 0.35 | 3.61 ± 0.38
c1ccccc1 [benzene] + CCCCn1cc[n+](C)c1.F[B-](F)(F)F | 2.39 ± 0.25 | 2.43 ± 0.26 | 2.48 ± 0.26
CC(C)O [propan-2-ol] + CCCCCCCC[n+]1ccn(C)c1.F[B-](F)(F)F | – | 1.41 ± 0.15 | 1.27 ± 0.13
CO [methanol] + CCCCCCCC[n+]1ccn(C)c1.F[B-](F)(F)F | 1.09 ± 0.11 | 0.94 ± 0.1 | 0.85 ± 0.09
CCO [ethanol] + CCCCCCCC[n+]1ccn(C)c1.F[B-](F)(F)F | – | 1.24 ± 0.13 | 1.1 ± 0.11
CCOC(C)=O [ethyl acetate] + CCCCCCCC[n+]1ccn(C)c1.F[B-](F)(F)F | – | 1.55 ± 0.16 | 1.62 ± 0.17
CCCCCC [hexane] + CCn1cc[n+](C)c1.F[B-](F)(F)F | 125 ± 13 | 113 ± 12 | 64.8 ± 6.8
c1ccccc1 [benzene] + CCCCCCCC[n+]1ccn(C)c1.F[B-](F)(F)F | 1.28 ± 0.13 | 1.29 ± 0.13 | 1.29 ± 0.13
CCCCCCC [heptane] + CCCCCCn1cc[n+](C)c1.F[B-](F)(F)F | 47.7 ± 5 | 39.9 ± 4.2 | 33.6 ± 3.5
CCOCC [diethyl ether] + CCCCCCn1cc[n+](C)c1.F[B-](F)(F)F | – | – | 2.53 ± 0.27
CCc1ccccc1 [ethylbenzene] + CCCCCCCC[n+]1ccn(C)c1.F[B-](F)(F)F | – | 2.35 ± 0.25 | 2.66 ± 0.28
CC(C)=O [acetone] + CCn1cc[n+](C)c1.F[B-](F)(F)F | – | 1.11 ± 0.11 | 1.14 ± 0.12
Cc1ccccc1 [toluene] + CCCCn1cc[n+](C)c1.F[B-](F)(F)F | – | 4.14 ± 0.44 | 4.13 ± 0.43

SMILES | activity coefficient (303 K) | activity coefficient (323 K) | activity coefficient (343 K)
CCC(C)=O [butanone] + CCCCCCCC[n+]1ccn(C)c1.F[B-](F)(F)F | – | 1.01 ± 0.1 | 1.04 ± 0.11
CCC(C)=O [butanone] + CCn1cc[n+](C)c1.F[B-](F)(F)F | – | 1.66 ± 0.17 | 1.77 ± 0.18
CCCCCC [hexane] + CCCCCCn1cc[n+](C)c1.F[B-](F)(F)F | 34.8 ± 3.7 | 29.6 ± 3.1 | 26.1 ± 2.7
CCO [ethanol] + CCCCn1cc[n+](C)c1.F[B-](F)(F)F | – | 1.91 ± 0.2 | 1.63 ± 0.17
CCC(C)=O [butanone] + CCCCCCn1cc[n+](C)c1.F[B-](F)(F)F | – | 1.14 ± 0.12 | 1.21 ± 0.12
ClCCCl [1,2-dichloroethane] + CCCCCCn1cc[n+](C)c1.F[B-](F)(F)F | – | 1.06 ± 0.11 | 1.19 ± 0.12
Cc1ccccc1 [toluene] + CCCCCCCC[n+]1ccn(C)c1.F[B-](F)(F)F | – | 1.75 ± 0.18 | 1.82 ± 0.19
CCOCC [diethyl ether] + CCCCCCCC[n+]1ccn(C)c1.F[B-](F)(F)F | – | 3.2 ± 0.34 | 3.39 ± 0.36
CC(C)O [propan-2-ol] + CCCCCCn1cc[n+](C)c1.F[B-](F)(F)F | – | 1.61 ± 0.17 | 1.57 ± 0.16
CCC(C)=O [butanone] + CCCCn1cc[n+](C)c1.F[B-](F)(F)F | – | 1.64 ± 0.17 | 1.72 ± 0.18
CCc1ccccc1 [ethylbenzene] + CCn1cc[n+](C)c1.F[B-](F)(F)F | – | 7.05 ± 0.74 | 6.87 ± 0.72
CCCO [propan-1-ol] + CCn1cc[n+](C)c1.F[B-](F)(F)F | – | 0.95 | 0.87
CCOCC [diethyl ether] + CCCCn1cc[n+](C)c1.F[B-](F)(F)F | – | – | 8.05 ± 0.85
CC(C)CC(C)(C)C [2,2,4-trimethylpentane] + CCCCn1cc[n+](C)c1.F[B-](F)(F)F | 145 ± 15 | 127 ± 13 | 125 ± 13
CC(C)O [propan-2-ol] + CCn1cc[n+](C)c1.F[B-](F)(F)F | – | 1.05 ± 0.11 | 1.01 ± 0.1
ClC(Cl)(Cl)Cl [tetrachloromethane] + CCCCn1cc[n+](C)c1.F[B-](F)(F)F | – | 5.5 ± 0.58 | 5.73 ± 0.6
CO [methanol] + CCCCCCn1cc[n+](C)c1.F[B-](F)(F)F | 1.19 ± 0.12 | 1.08 ± 0.11 | 0.99 ± 0.1
ClC(Cl)Cl [trichloromethane] + CCCCCCCC[n+]1ccn(C)c1.F[B-](F)(F)F | – | 0.62 ± 0.07 | 0.7 ± 0.07
ClC(Cl)Cl [trichloromethane] + CCCCCCn1cc[n+](C)c1.F[B-](F)(F)F | – | 0.81 ± 0.08 | 0.92 ± 0.09
CCCCCCC [heptane] + CCn1cc[n+](C)c1.F[B-](F)(F)F | 202 ± 21 | 173 ± 18 | 139 ± 15
CCCO [propan-1-ol] + CCCCn1cc[n+](C)c1.F[B-](F)(F)F | – | 2.64 ± 0.28 | 2.28 ± 0.24
CO [methanol] + CCn1cc[n+](C)c1.F[B-](F)(F)F | 0.43 ± 0.05 | 0.43 ± 0.05 | 0.42 ± 0.05
CCO [ethanol] + CCCCCCn1cc[n+](C)c1.F[B-](F)(F)F | – | 1.47 ± 0.15 | 1.31 ± 0.13
CC(C)=O [acetone] + CCCCCCn1cc[n+](C)c1.F[B-](F)(F)F | – | 0.85 ± 0.09 | 0.91 ± 0.09
